The target in test [1] is mitochondrial RNA-polymerase (POLRMT) (Mus musculus, UniProt Q8BKF1). The experiment in a line: Homogeneous TR-FRET assay for mitochondrial transcription activity. To be noted: homogeneous TR-FRET assay according to Example 4; activity class. In kind it is biochemical. Put shortly:
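TR-FRET read-out (340 nm excitation, 665 nm emission) of a 407 bp transcript captured by Eu-streptavidin/biotin donor and ATTO647N acceptor DNA probes after EDTA stop. Transcription ran 2 h at RT with 500 μM […], mouse POLRMT/TFAM/TFB2M and LSP-plasmid template, after 10 min compound preincubation (10 μM or dilution series).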
A general note: In TR-FRET formats the signal depends on donor and acceptor labels being close together.

Test [2] deals with mitochondrial transcription (7S RNA) in HeLa cells. The test is described as follows: Quantitative real time-PCR assay of inhibition of mitochondrial transcription (cellular qPCR assay IMT). Particulars: Homo sapiens, 4 h compound incubation, qRT-PCR according to Example 5, activity class. In kind it is cell-based. As to the method: Quantitative real-time PCR (qRT-PCR), based on the TagMan™ (Thermo Fisher Scientific, Waltham Mass.) technology, was carried out essentially as described in (Heid et al., 1996). HeLa cells were plated one day before compound treatment in RPMI medium supplemented with 10% Fetal Calf Serum and 2 mM L-glutamine. Cells were incubated with dilution series of compounds or vehicle (DMSO) for 4 h, prior to harvest and extraction of the RNA using the RNeasy Mini Kit (Qiagen, Hilden D), according to the manufacturer's instructions. RNA concentrations were measured spectroscopically, using a NanoDrop-2000 (Thermo Fisher Scientific, Waltham Mass.) and normalized prior to cDNA synthesis, using a ‘High-Capacity cDNA Reverse Transcription Kit’ (Thermo Fisher Scientific, Waltham Mass.). qRT-PCR was carried out using the ‘TaqMan Fast Advance Master Mix’ (Thermo Fisher Scientific, Waltham Mass.) on a 7500 Fast Real-Time PCR machine (Applied Biosystems, Foster City Calif.)
For these measurements, three genes were used to compare the effect of the scrutinized compounds in relation to their concentration. The POLRMT-gene was used to detect potential influences on nuclear transcription. Mitochondrial transcription in vivo was monitored by measurements 7S RNA. The TBP (TATA-box binding protein) gene was employed as the control (housekeeping gene) during qRT-PCR. The short-lived mitochondrial 7S RNA, which is not post-transcriptionally stabilized, allowed us to monitor rapid changes in mitochondrial transcription activity following compound addition. Biological triplicates were analyzed using the comparative CT Method (ΔΔCt) method (Bubner and Baldwin, 2004) and reported as Rq % values (Rq=Relative quantification=2-ΔΔCt).
In general terms: In qPCR the cycle at which signal appears reflects the starting amount.

Among the data in patent US11111238B2, “Coumarin derivatives, processes for their preparation and uses thereof for the treatment of cancer” (Lead Discovery Center GmbH, priority 2017, dated 2021) are IC50 values, retold here.

Chain of mitochondrial RNA-polymerase (POLRMT) (Q8BKF1 42-1207): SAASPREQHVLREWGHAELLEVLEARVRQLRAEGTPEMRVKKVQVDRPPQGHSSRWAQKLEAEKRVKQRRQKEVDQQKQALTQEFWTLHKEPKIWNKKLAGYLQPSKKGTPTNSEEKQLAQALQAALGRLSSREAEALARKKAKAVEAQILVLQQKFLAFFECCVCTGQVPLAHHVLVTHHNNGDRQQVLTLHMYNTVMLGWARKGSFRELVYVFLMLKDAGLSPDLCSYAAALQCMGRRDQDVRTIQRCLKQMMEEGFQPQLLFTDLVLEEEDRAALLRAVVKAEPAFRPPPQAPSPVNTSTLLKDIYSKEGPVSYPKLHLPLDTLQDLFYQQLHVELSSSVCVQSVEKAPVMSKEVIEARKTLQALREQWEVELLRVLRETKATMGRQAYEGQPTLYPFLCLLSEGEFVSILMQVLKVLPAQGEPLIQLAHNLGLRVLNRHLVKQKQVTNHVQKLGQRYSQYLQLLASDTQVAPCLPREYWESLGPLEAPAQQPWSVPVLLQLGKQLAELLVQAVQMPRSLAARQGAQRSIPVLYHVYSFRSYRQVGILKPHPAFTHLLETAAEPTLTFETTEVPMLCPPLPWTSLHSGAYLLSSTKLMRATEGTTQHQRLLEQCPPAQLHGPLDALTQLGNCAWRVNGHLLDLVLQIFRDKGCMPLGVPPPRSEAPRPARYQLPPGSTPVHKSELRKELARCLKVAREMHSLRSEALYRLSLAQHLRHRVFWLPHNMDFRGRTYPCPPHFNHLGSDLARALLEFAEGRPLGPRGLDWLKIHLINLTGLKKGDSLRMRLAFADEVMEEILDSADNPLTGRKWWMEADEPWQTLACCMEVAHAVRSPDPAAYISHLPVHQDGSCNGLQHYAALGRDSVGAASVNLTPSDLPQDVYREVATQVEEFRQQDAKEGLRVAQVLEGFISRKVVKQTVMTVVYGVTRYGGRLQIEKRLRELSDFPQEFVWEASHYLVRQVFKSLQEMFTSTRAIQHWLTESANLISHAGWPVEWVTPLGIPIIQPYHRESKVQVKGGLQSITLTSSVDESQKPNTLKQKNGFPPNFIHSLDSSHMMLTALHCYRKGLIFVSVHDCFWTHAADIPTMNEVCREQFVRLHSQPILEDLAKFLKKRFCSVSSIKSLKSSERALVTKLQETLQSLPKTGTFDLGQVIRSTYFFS

Consider `CCOC(=O)C[C@H]1CCCN(C(=O)[C@@H](C)Oc2ccc3c(-c4sccc4C)cc(=O)oc3c2)C1` [Compound 180, ethyl 2-[(3R)-1-[(2R)-2-[4-(3-methyl-2-thienyl)-2-oxo-chromen-7-yl]oxypropanoyl]-3-piperidyl]acetate], for which the IC50 – broadly, the point on the concentration scale where inhibition reaches its midpoint – is 20 to 100 nM in test [1] and less than 10 nM in test [2].
For the compound `COC(=O)C[C@H]1CCCN(C(=O)[C@@H](C)Oc2ccc3c(-c4ccc(F)cc4Cl)cc(=O)oc3c2)C1` [Compound 104, methyl 2-[(3R)-1-[(2R)-2-[4-(2-chloro-4-fluoro-phenyl)-2-oxo-chromen-7-yl]oxypropanoyl]-3-piperidyl]acetate], the IC50 in test [1] is less than 20 nM; in test [2] it was 10 to 50 nM.
On the same counts, the results for `COC(=O)c1cccc(NC(=O)[C@@H](C)Oc2ccc3c(-c4ccc(F)cc4Cl)cc(=O)oc3c2)n1` [Compound 149, methyl 6-[[(2R)-2-[4-(2-chloro-4-fluoro-phenyl)-2-oxo-chromen-7-yl]oxypropanoyl]amino]pyridine-2-carboxylate] are 20 to 100 nM and 50 to 500 nM.
Taken in the same sequence, the figures for `C[C@@H](Oc1ccc2c(-c3ccc(F)cc3Cl)cc(=O)oc2c1)C(=O)Nc1cccc(C(=O)O)c1` [Compound 139, 3-[[(2R)-2-[4-(2-chloro-4-fluoro-phenyl)-2-oxo-chromen-7-yl]oxypropanoyl]amino]benzoic acid] were less than 20 nM and 50 to 500 nM.
Taken in the same sequence, the figures for `Cc1ccccc1-c1cc(=O)oc2cc(O[C@H](C)C(=O)NC(C)C)ccc12` [Compound 36, (2R)-N-isopropyl-2-[4-(o-tolyl)-2-oxo-chromen-7-yl]oxy-propanamide] were less than 20 nM and less than 10 nM.
`CC(Oc1ccc2c(-c3ccccc3Cl)cc(=O)oc2c1)C(=O)N1CCCC(S(C)(=N)=O)C1` (stereo not shown) [Compound 79, 4-(2-chlorophenyl)-7-[1-methyl-2-[3-(methylsulfonimidoyl)-1-piperidyl]-2-oxo-ethoxy]chromen-2-one]: the values for the IC50 in test [1] and in test [2] were 20 to 100 nM and less than 10 nM, respectively.
Taken in the same sequence, the figures for `Cc1ccccc1-c1cc(=O)oc2cc(OC(C)C(=O)NC(C)C)ccc12` (stereo not shown) [Compound 62, N-isopropyl-2-[4-(o-tolyl)-2-oxo-chromen-7-yl]oxy-propanamide] were 20 to 100 nM and less than 10 nM.
Taken in the same sequence, the figures for `COC(=O)CC1CCN(C(=O)C(C)Oc2ccc3c(-c4ccccc4Cl)cc(=O)oc3c2)CC1` (stereo not shown) [Compound 80, methyl 2-[1-[2-[4-(2-chlorophenyl)-2-oxo-chromen-7-yl]oxypropanoyl]-4-piperidyl]acetate] were 20 to 100 nM and 50 to 500 nM.
`Cc1ccccc1-c1cc(=O)oc2cc(O[C@H](C)C(=O)N3CCC[C@H](C(=O)O)C3)ccc12` [Compound 27, (3S)-1-[(2R)-2-[4-(o-tolyl)-2-oxo-chromen-7-yl]oxypropanoyl]piperidine-3-carboxylic acid]: the IC50 was less than 20 nM in test [1] and less than 10 nM in test [2].
In the case of `C[C@@H](Oc1ccc2c(-c3ccc(F)cc3Cl)cc(=O)oc2n1)C(=O)N1CCC[C@H](C(=O)O)C1` [Compound 173, (3S)-1-[(2R)-2-[4-(2-chloro-4-fluoro-phenyl)-2-oxo-pyrano[2,3-b]pyridin-7-yl]oxypropanoyl]piperidine-3-carboxylic acid], the values for the IC50 in test [1] and in test [2] were 20 to 100 nM and 50 to 500 nM, respectively.
Taken in the same sequence, the figures for `Cc1ccccc1-c1cc(=O)oc2cc(OC(C)(C)C(=O)NC(C)C)ccc12` [Compound 115, N-isopropyl-2-methyl-2-[4-(o-tolyl)-2-oxo-chromen-7-yl]oxy-propanamide] were 100 to 1000 nM and 10 to 50 nM.
Taken in the same sequence, the figures for `CC(C)OC(=O)OCOC(=O)C[C@H]1CCCN(C(=O)[C@@H](C)Oc2ccc3c(-c4ccc(F)cc4Cl)cc(=O)oc3c2)C1` [Compound 127, isopropoxycarbonyloxymethyl 2-[(3R)-1-[(2R)-2-[4-(2-chloro-4-fluoro-phenyl)-2-oxo-chromen-7-yl]oxypropanoyl]-3-piperidyl]acetate] were 20 to 100 nM and less than 10 nM.
Regarding `Cc1ccccc1-c1cc(=O)oc2cc(OC(C)C(=O)NC3CC3)ccc12` (stereo not shown) [Compound 25, N-cyclopropyl-2-[4-(o-tolyl)-2-oxo-chromen-7-yl]oxy-propanamide], the IC50 is less than 20 nM in test [1] and less than 10 nM in test [2].
Taken in the same sequence, the figures for `CC(Oc1ccc2c(-c3ccccc3Br)cc(=O)oc2c1)C(=O)N(C)C` (stereo not shown) [Compound 89, 2-[4-(2-bromophenyl)-2-oxo-chromen-7-yl]oxy-N,N-dimethyl-propanamide] were 20 to 100 nM and less than 10 nM.
Taken in the same sequence, the figures for `CC(Oc1ccc2c(-c3ccccc3Cl)cc(=O)oc2c1)C(=O)NC1CC1` (stereo not shown) [Compound 26, 2-[4-(2-chlorophenyl)-2-oxo-chromen-7-yl]oxy-N-cyclopropyl-propanamide] were less than 20 nM and less than 10 nM.
Take `CC(C)OC(=O)C(C)Oc1ccc2c(-c3ccccc3Br)cc(=O)oc2c1` (stereo not shown) [Compound 92, isopropyl 2-[4-(2-bromophenyl)-2-oxo-chromen-7-yl]oxypropanoate]: the figures for the IC50 in test [1] and in test [2] were 20 to 100 nM and less than 10 nM, respectively.
On the same counts, the results for `C=CC(=O)N1CCN(C(=O)[C@@H](C)Oc2ccc3c(-c4ccc(F)cc4Cl)cc(=O)oc3c2)CC1` [Compound 164, 4-(2-chloro-4-fluoro-phenyl)-7-[(1R)-1-methyl-2-oxo-2-(4-prop-2-enoylpiperazin-1-yl)ethoxy]chromen-2-one] are less than 20 nM and less than 10 nM.
On the same counts, the results for `CCCCCCCOC(=O)[C@H]1CCCN(C(=O)[C@@H](C)Oc2ccc3c(-c4ccc(F)cc4Cl)cc(=O)oc3c2)C1` [Compound 120, heptyl (3S)-1-[(2R)-2-[4-(2-chloro-4-fluoro-phenyl)-2-oxo-chromen-7-yl]oxypropanoyl] piperidine-3-carboxylate] are 100 to 1000 nM and less than 10 nM.
Taken in the same sequence, the figures for `Cc1ccsc1-c1cc(=O)oc2cc(O[C@H](C)C(=O)N3CCCCC3)ccc12` [Compound 177, 7-[(1R)-1-methyl-2-oxo-2-(1-piperidyl)ethoxy]-4-(3-methyl-2-thienyl)chromen-2-one] were 20 to 100 nM and less than 10 nM.
With `C[C@@H](Oc1ccc2c(-c3ccc(F)cc3Cl)cc(=O)oc2c1)C(=O)N1CC[C@@H](CC(=O)O)C1` [Compound 147, 2-[(3S)-1-[(2R)-2-[4-(2-chloro-4-fluoro-phenyl)-2-oxo-chromen-7-yl]oxypropanoyl]pyrrolidin-3-yl]acetic acid], the IC50 was less than 20 nM in test [1] and 10 to 50 nM in test [2].
For the compound `CC(C)OC(=O)[C@H]1CCCN(C(=O)[C@@H](C)Oc2ccc3c(-c4ccc(F)cc4Cl)cc(=O)oc3c2)C1` [Compound 117, isopropyl (3S)-1-[(2R)-2-[4-(2-chloro-4-fluoro-phenyl)-2-oxo-chromen-7-yl]oxypropanoyl] piperidine-3-carboxylate], the IC50 in test [1] fell in the range of 20 to 100 nM; in test [2], 50 to 500 nM.
On the same counts, the results for `CCCCCCCOC(=O)C[C@H]1CCCN(C(=O)[C@@H](C)Oc2ccc3c(-c4ccc(F)cc4Cl)cc(=O)oc3c2)C1` [Compound 126, heptyl 2-[(3R)-1-[(2R)-2-[4-(2-chloro-4-fluoro-phenyl)-2-oxo-chromen-7-yl]oxypropanoyl]-3-piperidyl]acetate] are 100 to 1000 nM and less than 10 nM.
Regarding `C[C@@H](Oc1ccc2c(-c3ccc(F)cc3Cl)cc(=O)oc2c1)C(=O)N1CCN(C(=O)CCl)CC1` [Compound 166, (R)-4-(2-chloro-4-fluorophenyl)-7-((1-(4-(2-chloroacetyl)piperazin-1-yl)-1-oxopropan-2-yl)oxy)-2H-chromen-2-one], the IC50 in test [1] was less than 20 nM; in test [2], less than 10 nM.
With `Cc1ccccc1-c1cc(=O)oc2cc(OC(C)C(=O)N3CCCC(S(N)(=O)=O)C3)ccc12` (stereo not shown) [Compound 12, 1-[2-[4-(o-tolyl)-2-oxo-chromen-7-yl]oxypropanoyl]piperidine-3-sulfonamide], the IC50 is less than 20 nM in test [1] and less than 10 nM in test [2].
For the compound `Cc1ccccc1-c1cc(=O)oc2cc(OC(C)C(=O)N3CCC[C@@H](C(=O)N(C)C)C3)ccc12` (stereo partly drawn) [Compound 78, (3R)-N,N-dimethyl-1-[2-[4-(o-tolyl)-2-oxo-chromen-7-yl]oxypropanoyl]piperidine-3-carboxamide], the IC50 was 20 to 100 nM in test [1] and less than 10 nM in test [2].
On the same counts, the results for `C[C@@H](Oc1ccc2c(-c3ccc(F)cc3Cl)cc(=O)oc2c1)C(=O)N1CCC[C@H](CC(=O)OC(C)(C)C)C1` [Compound 124, tert-butyl 2-[(3R)-1-[(2R)-2-[4-(2-chloro-4-fluoro-phenyl)-2-oxo-chromen-7-yl]oxypropanoyl]-3-piperidyl]acetate] are 20 to 100 nM and less than 10 nM.
